{"source": "patent US11267809B2", "about": "“BAF complex modulating compounds and methods of using the same” (THE BOARD OF TRUSTEES OF THE LELAND STANFORD JUNIOR …, priority 2017, dated 2022)", "type_in_all_cases": "cell-based, human", "key": {"HCT116 cells": {"system": "HCT116 cells", "assay": "Synergy viability assay (CellTitre blue, 5 days), HCT116 ARID1A(+/+)", "method": "To assess drug synergy, the Chou-Talalay method was employed to provide a mechanism-independent method to quantify the synergism of drug interactions. This method combines elements of the Scatchard, Michaelis-menten, Hill, and Henderson-Hasslebalch equations through the law of mass-action^31,32 to generate a quantifiable assessment of synergy. Molecules were tested both independently and then in 25 different combinations in HCT116 cells for 5 days as described above. To determine a combination index (CI), median-effect equations of the two respective molecules were determined from their respective dose responses. The median-effect equation was used to calculate a median-effect dose, and (Dx)ATRi,BAFi values which correspond for the respective doses of the BAFi and ATRi compounds and correlate with a given percentage of cells affected by the individual treatments. Normalized index values (IATRi, IBAFi), and the combination index are a ratio between the treatment dose, and the Dx for a given fraction of affected cells. Combination indices less than 0.9 are considered synergistic, while values ranging from 0.9 to 1.1 are additive, and CIs above 1.1 are antagonistic.\n(§1) Viability assays were performed in 384-well plates. Cells were plated at 500 cells/well. Each drug was administered in 5-doses with 4 replicates per plate, and each 5×5 drug combination was administered with 8 replicates per plate, 24 hours after seeding. All error bars represent 4 or 8 technical replicates averaged over 3 independent experiments. Media containing fresh drug was replaced every 48 hours. After 5 days, cellular viability was measured using CellTitre blue, as described by the manufacturer."}, "MCF-7 cells": {"system": "MCF-7 cells", "assay": "Synergy viability assay, MCF-7", "details": "with VE-821 (1.25-20 uM each)", "description": "(§2) In ARID1A-deficient tumors, ATR inhibition is thought to trigger premature mitotic entry and chromosome instability that cannot be resolved, resulting in mitotic catastrophe^27. […] We sought to assess whether generic BAF inhibition might sensitize a host of cancers to ATR inhibition. We tested the efficacy of BAFi and ATRi on nine additional human cancer cell lines including seven Breast cancer cell lines (HCC1143, HCC1954, HCC1187, MDAMB-468, MDA-MB-436, Cal-51, MCF-7) and two renal clear cell carcinoma cell lines (A-704, and ACHN). Cal-51 and MCF-7 are both considered aggressive, highly mutated breast cancer cell lines with numerous COSMIC Census gene mutations (FIG. 10). HCC1143 and MDA-MB-468 are sporadic basal-likecancers, HCC1187 is a triple-negative breast cancer, and HCC1954 and MDA-MB-436 are BRCA1 mutant breast cancers which harbor single driver mutations. To assess synergy, each cell line was treated with 5 doses of VE-821 (1.25 uM-20 uM) and 5 doses of Baficillin1 (1.25 uM-20 uM), both independently and with all possible combinations. Like HCT-116 cells, Baficillin1 sensitized MCF-7 and Cal-51 cells lines to treatment with VE-821 (FIG. 6a).\n(§3) Viability assays were performed in 384-well plates. Cells were plated at 500 cells/well. […] After 5 days, cellular viability was measured using CellTitre blue, as described by the manufacturer."}, "[1]": {"system": "HCT116 cells infected with shRNA lentivirus targeting ARID1A", "assay": "Synergy viability assay, HCT116 with shARID1A knockdown", "description": "SMARCA4, the primary target of our original screen, is present in both human BAF and PBAF complexes in cancer^12. PBAF complexes differ from BAF complexes by incorporation of specific subunits. Specifically, PBAF complexes contain ARID2 (as opposed to ARID1A/B), PHF10 (BAF45a) (as opposed to […] (BAF45d)), PBRM1, and lack the BAF-specific subunit SS18. PBAF specific subunits are also frequently mutated in cancer, specifically renal clear cell carcinomas and cholangiocarcinomas^33-36. To assess whether the lead compound is targeting BAF, PBAF complexes, or both, we constitutively knocked down ARID1A or ARID2 by lentiviral transduction of HCT116 cells and compared the BAFi/ATRi synergy to the wild-type (ARID1A+/+). […] Further, upon knockdown of ARID1A or ARID2 (FIG. 3b), the synergistic effect observed between Baficillin1 and VE-821 was ablated upon loss of ARID1A (FIG. 3e) (CIshARID1A=1.48±0.14), but not loss of shARID2 (CIshARID2=0.42±0.04) (FIG. 3c-e).\nas §1\nLentiviruses were produced in Lenti-X 293T cells (Clonetech) via spinfection with polyethylenimine transfection. 293T-x cells were transfected with PEI (Polysciences Inc., 24765) with lentiviral PLKO shARID1A or GIPZ shARID2 knockdown vectors, co-transfected with packaging vectors pspax2 and pMD2.G as previously described^49. PLKO shRNA construct targeting ARID1A (TRCN0000059090: shRNA-2) was obtained^50 and GIPZ Human ARID2 shRNA was purchased from Dharmacon (CloneId:V2LHS_74399). […]"}, "Cal-51 cells": {"system": "Cal-51 cells", "assay": "Synergy viability assay, Cal-51", "details": "with VE-821 (1.25-20 uM each)", "description": "as §2, §3"}}}
{"smiles": "CO[C@H]1CN(C)C(=O)c2cc(NC(=O)NC(C)C)ccc2OC[C@H](C)N(Cc2ccc(-c3ccccn3)cc2)C[C@@H]1C", "note": "[Baficillin1]", "values": [{"measurement": "dose reduction index", "setting": "HCT116 cells; combination of VE-821 and Baficillin1, higher concentrations", "result": "> 100", "unit": "fold"}, {"measurement": "dose reduction index", "setting": "HCT116 cells; combination of VE-821 and Baficillin1, low concentrations", "result": "over 10 fold"}, {"measurement": "average combination index (CI)", "setting": "HCT116 cells; with VE-821 (1.25-20 uM each, 25 combinations), 5 days, Chou-Talalay", "result": "0.53±0.05"}, {"measurement": "combination index (CI MCF-7)", "setting": "MCF-7 cells", "result": "0.45±0.04"}, {"measurement": "sensitivity (cell survival) compared to wild-type HCT116", "setting": "[1]; single agent, 5 continuous days", "result": "slightly less sensitive"}, {"measurement": "combination index (CI shARID1A)", "setting": "[1]; with VE-821, 5 days", "result": "1.48±0.14"}, {"measurement": "combination index (CI Cal-51)", "setting": "Cal-51 cells", "result": "0.57±0.09"}]}
